Results as given in patent US5872141A, “Method of inhibiting cholesterol transport” (priority 1997, dated 1999).
Read-outs that look alike come from different tables or passages of the source.

Columns and labels:
IEC-6 cells [1] = experiment: Specific steroid uptake from TDC-DMPC micelles by IEC-6 cells; type: cell-based, rat
Protocol: There was less than 15% variation between duplicates. Under these conditions of incubation the monolayer remained intact.
Referring to FIG. 1, monolayers on 12 well plates of IEC-6 cells were incubated for the indicated times at 37° C. with ^3 H-cholesterol (.circle-solid.), ^14 C-sitosterol (o), or ^3 H-cholesteryl oleate (.tangle-solidup.) in TDC-DMPC micelles as described above. The concentration (75 μM) and specific activity of the steroid was the same in all three conditions. After the desired incubation period, the media was removed, the monolayers were washed, the cells solubilized, and the amount of radioactivity incorporated into the cells was determined and plotted as counts per minute in the cells. […] At 60 minutes the cholesterol content of the cells was 2.7 times the sitosterol. Since sitosterol is closely related to cholesterol both chemically and physically, this indicated a biologically specific uptake. […] Thus, the IEC-6 cells were able to absorb specifically cholesterol from the mixed micelles.

[2] = Uptake of micellar steroid from isolated duodenum into mucosal homogenate; type: in vivo, rat
Protocol: Fifty Wistar male rats were anesthetized with phenobarbital and a celiotomy was performed. The duodenum was isolated with ligatures of umbilical tape at the pylorus and the ligament of Treitz. One ml of a suspension of micelles containing ^3 H-cholesterol and ^14 C-sitosterol together with taurodeoxycholate (TDC) and dimyristic phosphatidyl choline (DMPC) (Safonova et al. 1994) were injected into the isolated duodenum of each rat. Following ten minutes incubation in the duodenum the gut loop was excised. The duodenum was opened lengthwise with iris scissors and mucosal contents were vigorously washed in two changes of 0.15M NaCl, 20 mM Hepes solution (pH 7.5). The mucosa was scraped free with a glass microscope slide and homogenized in a Virtis homogenizer for 5 minutes and 12 strokes in a Potter-Elvehjeim homogenizer as previously described (Conrad et al. 1993). […] Membranes were collected by centrifugation at 20,000×g for 20 minutes. Membrane proteins were extracted overnight at 4° C. in 1% Triton X 100 20 mM Hepes pH 7.5. The suspension was centrifuged at 20,000×g for 20 minutes. The solubilized material (70 ml) contained 70% of the radiolabeled cholesterol. The solubilized material was applied to a 240 ml column of DE-92 (Whatmann) equilibrated in 20 mM Hepes, 1% Triton X 100 pH 7.5 and eluted with a saline gradient. […]

alkaline phosphatase = conditions: levamisole 58 mM, pH 8.5, 30 minutes at 37° C., IEC-6 homogenate, FIG. 2
Protocol: An incubation mixture of […] was prepared containing 0.1 ml of 500 mM Hepes pH 8.5, 25 mM MgCl2, 2.5 μM ZnCl2, and 0.5 ml of homogenate [1.0 mg/ml protein as determined by BCA method (Pierce, Rockford, Ill.)]. The indicated amount of p-nitrophenyl phosphate was added and the incubation allowed to proceed for 30 minutes at 37° C. To some of the tubes levamisole (58 mM) was added. After the incubation the absorption at 412 nm was determined.

IEC-6 cells [3] = conditions: increasing concentrations of levamisole, 30 minutes at 37° C., FIG. 3
Protocol: Radioisotopes were obtained from NEN (Billerca, Mass.) and other chemicals from Sigma (St. Louis, Mo.). ^3 H-cholesterol micelles were prepared from dimyristic phosphatidyl choline (DMPC) and taurodeoxycholate (TDC) as described by others (Safanova et al. 1994). The final solution contained 2.2×10^6 cpm/ml, 0.1 μM cholesterol, 60 mM DMPC and 6.5 mM TDC. Micelles with ^14 C-sitosterol or ^3 H-cholesteryl oleate were similarly prepared using the appropriate steroid and had the same specific activity. IEC-6 cells (Quaroni et al. 1979) obtained from the American Type Culture Collection (12301 Parklawn Drive, Rockville, Md.) were grown to confluence on 12-well Corning tissue culture plates. The media was removed and the monolayers were washed with phosphate buffered saline containing calcium, magnesium, and glucose (PBS). One ml of PBS was added to each well and 40 μl of the micellar solution (for a final steroid concentration of 4 nM). After incubation at 37° C., the plates were chilled and the wells washed four times in cold PBS. Water (0.5 ml) was added, and the plates were sonicated for 15 minutes (Branson model B-220, Shelton, Conn.) and then washed in an additional 0.5 ml of water. The water lysates were combined and counted in Ready-Safe (Beckman, Fullerton, Calif.) scintillation fluid. There was less than 15% variation between duplicates. […]

IEC-6 cells [4] = conditions: 32 mM levamisole, 60 minutes at 37° C., 20-60% sucrose gradient, FIG. 5
Protocol: Two petri dishes (7.5 cm) with monolayers of IEC-6 cells were grown to confluence and used for each experiment. Each plate was washed in PBS and then incubated with 3 ml of PBS containing 120 μl of cholesterol micelles. In two parallel petri dishes an identical incubation was performed but with the addition of 32 mM levamisole. After 60 minutes incubation the dishes were chilled, washed four times with cold PBS and then harvested by scraping the dishes into 8 ml of 10 mM Hepes, 10 mM NaCl pH 7.4. The cells were homogenized using a Tissue-Tearor (Biospec Products, Bartlettsville, Okla.) at full speed for 30 seconds×3. The homogenate was layered on top of a 26 ml linear sucrose gradient from 20-60% (w/w). Centrifugation was performed over 18-20 hours at 19,000 rpm with a S-20 rotor in a Sorvall RC28S (DuPont, Wilmington, Del.) centrifuge. The tubes were punched from the bottom and 1 ml fractions collected. Standard methods were used to identify the membrane fractions (Storrie & Madden 1990) utilizing p-nitrophenyl-sugars and spectrophotometric analysis.
Referring to FIG. 4, IEC-6 cells were incubated with ^3 H-cholesterol micelles for 60 minutes at 37° C., and then washed, homogenized, and separated on 20-60% sucrose gradients. The gradients were centrifuged to equilibrium. The location of various membrane fragments was determined by standard enzymatic methods (Storrie & Madden 1990). […]

CCCCCCCC/C=C\CCCCCCCC(=O)O[C@H]1CC[C@@]2(C)C(=CC[C@H]3[C@@H]4CC[C@H]([C@H](C)CCCC(C)C)[C@@]4(C)CC[C@@H]32)C1 [Cholesterol ester, cholesteryl oleate]
uptake by IEC-6 cells (IEC-6 cells [1]): poorly absorbed

CC(C)CCC[C@@H](C)[C@H]1CC[C@H]2[C@@H]3CC=C4C[C@@H](O)CC[C@]4(C)[C@H]3CC[C@]12C [cholesterol]
total uptake into the homogenate, % of added steroid ([2]; rat, in vivo, 10 min): 16%
uptake by IEC-6 cells (IEC-6 cells [1]): linear for at least an hour

c1ccc([C@H]2CN3CCSC3=N2)cc1 [levamisole, 2,3,5,6-tetrahydro-6-phenylimidazo-[2,1-b]thiazole]
alkaline phosphatase activity inhibition (mode) (alkaline phosphatase): competitively inhibited
effect of increasing drug concentration on cholesterol uptake (IEC-6 cells [3]): did not result in complete inhibition of uptake
cholesterol uptake inhibited (IEC-6 cells [3]; maximal inhibition): Approximately 50%
subcellular location of 3H-cholesterol label (IEC-6 cells [4]): majority of the label was found in the plasma membrane fraction (P)

CC[C@H](CC[C@@H](C)[C@H]1CC[C@H]2[C@@H]3CC=C4C[C@@H](O)CC[C@]4(C)[C@H]3CC[C@]12C)C(C)C [sitosterol]
total uptake into the homogenate, % of added steroid ([2]; rat isolated duodenum, micelles with TDC and DMPC, ten minutes incubation): 2%
uptake by IEC-6 cells (IEC-6 cells [1]; 37° C., TDC-DMPC micelles, FIG. 1, cholesterol ester without added pancreatic cholesterol esterase): incorporated much less efficiently
